Laboratory results reported in patent EP0283349A1, “Process for obtaining tannic principles of vegetable origin, cosmetologic and pharmaceutical composition containing the tannic principle obtained by the process” (Lamaison, Jean-Louis, priority 1987, dated 1988).

Target: élastase pancréatique porcine (Sus scrofa, UniProt P00772)
Assay: Elastase inhibition (method of SHINOGI et al., substrate Boc-Ala-ONp)
Format: biochemical
Conditions: mass of inhibitor giving 50 % inhibition after 30 minutes; referred to the dry plant drug for plant extracts, real mass for defined principles
Experimental: Les dosages d'activités inhibitrices de l'élastase, de la trypsine et de l'α-chymotrypsine ont été réalisés selon la méthode de SHINOGI et al. (1), la quantité d'inhibiteur étant adaptée de manière à obtenir une inhibition voisine de 50 % (I50) après 30 minutes, les extraits étant généralement préparés à partir de 0,5 g de poudre (250) de plante sèche dans 20 ml d'éthanol à 50 % V/V, les principes définis en solution à 1 mg/ml d'éthanol à 50 % V/V.

Chain of élastase pancréatique porcine (P00772 27-266): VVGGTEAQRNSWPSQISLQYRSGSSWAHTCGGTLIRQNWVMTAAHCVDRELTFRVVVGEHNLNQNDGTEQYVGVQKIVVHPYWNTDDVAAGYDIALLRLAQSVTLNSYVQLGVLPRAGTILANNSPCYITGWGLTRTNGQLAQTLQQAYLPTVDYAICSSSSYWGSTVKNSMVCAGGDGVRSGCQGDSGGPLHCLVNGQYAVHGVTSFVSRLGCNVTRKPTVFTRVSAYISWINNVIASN

O=c1c(O[C@@H]2O[C@H](CO)[C@H](O)[C@H](O)[C@H]2O)c(-c2ccc(O)c(O)c2)oc2cc(O)cc(O)c12 [Hypéroside]
I 50 Elas-tase: 275 µg

O=c1c(O)c(-c2ccc(O[C@@H]3O[C@H](CO)[C@@H](O)[C@H](O)[C@H]3O)c(O)c2)oc2cc(O)cc(O)c12 [Quercétine 4'-Glucoside]
I 50 Elas-tase: 250 µg

Ethoxazo-rutine
I 50 Elas-tase: 250 µg

O=c1c(O)c(-c2ccc(O)cc2O)oc2cc(O)cc(O)c12 [Morine]
I 50 Elas-tase: 60 µg

Catéchine-épicatéchine
I 50 Elas-tase: 35 µg

Acide tannique
I 50 Elas-tase: 50 µg

C[C@@H]1O[C@@H](OC[C@H]2O[C@@H](Oc3c(-c4ccc(O)c(O)c4)oc4cc(O)cc(O)c4c3=O)[C@H](O)[C@@H](O)[C@@H]2O)[C@H](O)[C@H](O)[C@H]1O [Rutoside]
I 50 Elas-tase: 150 µg

O=C(O)c1cc(O)c(O)c(O)c1 [Acide gallique]
I 50 Elas-tase: 100 µg

Hamamélitanin
I 50 Elas-tase: 600 µg
